Experimental data taken from publication PMC5786306, “An AKAP-Lbc-RhoA interaction inhibitor promotes the translocation of aquaporin-2 to the plasma membrane of renal collecting duct principal cells” (PLoS ONE, 2018).

Experiments:
Type in all cases: cell-based, rat
[1] = system: RhoA activity in IMCD cells; assay: Rhotekin pull down of active RhoA in IMCD cells; settings: 30 μM
Method: Western blotting for the detection of RhoA and Hsp90 and a Rhotekin pull down for the detection of active, GTP-bound RhoA were adapted from a procedure previously described by us. In brief, IMCD cells were cultured as described, DBcAMP and nystatin were removed on day twelve after seeding by exchange of medium for medium without the compounds. On the following day, Scaff10-8 was added to a final concentration of 30 μM or, as a control, the solvent DMSO (0.3%) for 1 h. Then cells were treated with forskolin (30 μM) for an additional 30 min, and subsequently incubated at 4°C in ice-cold Rhotekin buffer (50 mM Tris, pH 7.2; 1% (w/v) Triton X-100; 0.5% sodium deoxycholate; 500 mM NaCl; 10 mm MgCl2; PhosSTOP EASY (PhosSTOP EASY pack, Roche Diagnostics, Mannheim, DE; #REF04906837001), Complete mini EDTA-free (Complete mini EDTA-free, Roche Diagnostics, Mannheim, DE; #REF0693159001), for 10 min and lysed. Lysates (300–400 μg protein) were incubated with 300 μl of Rhotekin beads as previously described Proteins were eluted from beads with Laemmli buffer and analyzed by Western blotting. […]
Fig 10 Scaff10-8 inhibits activation of RhoA in primary IMCD cells. […] Signals were semiquantitatively analyzed by densitometry. […] Statistically significant differences were determined using one-way ANOVA with posthoc Bonferroni. […]

[2] = system: AQP2 localization and F-actin in primary IMCD cells; assay: Immunofluorescence microscopy of AQP2 and F-actin in primary IMCD cells
Text: Primary rat renal inner medullary collecting duct (IMCD) cells were obtained and cultured as previously described. AQP2 was detected with specific rabbit (H27 antibody) and secondary Cy3-coupled antibodies, and F-actin was visualized with Alexa Fluor 647-Phalloidin by laser scanning microscopy (LSM780; Zeiss Jena, Germany) as described.
Fig 8 Scaff10-8 promotes the redistribution of AQP2 to the plasma membrane of primary IMCD cells, which is independent of cAMP elevation and associated with depolymerization of F-actin. (A) Upper panel. IMCD cells were treated with DMSO (1%; control), the solvent of Scaff10-8, or forskolin (10 μM, 30 min) to stimulate cAMP synthesis. Lower panels: The cells were treated for 1 hour with Scaff10-8 (30 μM) alone (control) or with Scaff10-8 and forskolin. Forskolin (10 μM) was added for the final 30 min of Scaff10-8 incubation. AQP2 (green) was detected with specific primary and Cy3-coupled secondary antibodies, F-actin (red) with Alexa Fluor 647-Phalloidin and nuclei with DAPI (blue). Signals were visualized using a laser scanning microscope. Representative images are shown. n = 3. The magnified views were derived from the indicated boxes. (B) The signal intensities arising from intracellular and plasma membrane AQP2 were recorded, related to nuclear signal intensities, and the ratios of plasma membrane to intracellular fluorescence signal intensities were calculated (n = 30 cells per condition). Ratios > 1 indicate a predominant localization of AQP2 at the plasma membrane. Statistically significant differences were calculated using one-way ANOVA with posthoc Bonferroni. Mean ± SEM; *, p ≤ 0.05; *** p ≤ 0.001.

[3] = system: Cdc42 activity in IMCD cells; assay: PAK-1-PBD pull down, Cdc42; settings: 30 μM, 1 h
Method: The (p21) binding domain (PBD) of p21 activated kinase 1 protein (PAK-1) spans amino acids 67–150 of PAK-1 and binds specifically to the GTP-bound Rac-1 and Cdc42. The PBD was prepared as described and used for selective precipitation of the activated GTPases from IMCD cells. The PBD was expressed as a GST-fusion protein in DH5α E-coli cells, the cells were lysed using a French press, and the fusion protein was purified with Glutathione Sepharose 4 Fast Flow GST-tagged protein purification resin kit according to the manufacturer’s instructions (GE Healthcare; #17-5132-01). The PAK-1-PBD pull down was carried out with 400–500 μg protein from IMCD cell lysates. Proteins were eluted from the beads by boiling with Laemmli sample buffer, and analyzed by Western blotting. The membranes were first probed for Cdc42, and the GTP-bound active fraction of the protein was related to total Cdc42, and to the loading control GAPDH. The membranes were re-probed for Rac-1 accordingly to determine the active GTP-bound Rac-1 fraction.
Fig 10 Scaff10-8 inhibits activation of RhoA in primary IMCD cells. IMCD cells were incubated with Scaff10-8 (30 μM, 1 h). DMSO (1%), the solvent of Scaff10-8, served as a control. […] Signals were semiquantitatively analyzed by densitometry. […] Statistically significant differences were determined using one-way ANOVA with posthoc Bonferroni. […]

Q: For `COc1ccc(-c2coc3cc4oc(=O)c(CCC(=O)O)c(C)c4cc23)cc1` [Scaff10-8, 3-[3-(4-Methoxyphenyl)-5-methyl-7-oxo-furo[3,2-g]chromen-6-yl] propanoic acid], which RhoA activity ([1]; 1 h) is on record?
A: decreased RhoA activity

Q: And the “effect on RhoA inhibition by forskolin” value ([1]; 1 h plus forskolin 30 μM, 30 min)?
A: did not significantly enhance

Q: What about the “effect on forskolin-induced redistribution of AQP2” value ([2]; 30 μM, 1 h plus forskolin) of the same molecule?
A: did not enhance the forskolin-induced redistribution

Q: What about the F-actin ([2]; Scaff10-8 30 μM alone, forskolin alone) of the same molecule?
A: F-actin also decreased

Q: What about the “localization of AQP2” value ([2]; Scaff10-8 30 μM, 1 h, no forskolin, forskolin 10 μM, 30 min) of the same molecule?
A: caused the translocation of AQP2 to the plasma membrane

Q: And the “effect of forskolin on F-actin” value ([2]; Scaff10-8 plus forskolin)?
A: did not influence

Q: And the “activity of Cdc42” value [3]?
A: did not influence activities
